In patent US20260070887A1 (Shenzhen Zhongge Biological Technology Co., Ltd., priority 2022, published 2026):
Like-named read-outs stand apart in the source and are kept apart here.

Key:
PK study in ICR mice = assay type: in vivo, mouse; conditions: plasma, route and dose not given
Procedure: 6 ICR mice (male/female) were divided into two groups, administered orally and intravenously, respectively, with 3 mice/group. The mice were fasted for 10-14 hours prior to dosing with free access to water.
The test compound was weighed according to the administration dose, and prepared into a dose formulation at appropriate concentrations (for rats and mice, intravenous and oral administration at a volume of 5 mL/kg and 10 mL/kg, respectively), wherein the intravenous injection was a clear solution, and the oral preparation was a clear solution or a homogeneous suspension.
Animals were dosed by intravenous injection and oral gavage, and blood samples were collected at 0.033, 0.083, 0.25, 0.5, 1, 2, 4, 8, and 24 h after intravenous administration and 0.083, 0.25, 0.5, 1, 2, 4, 6, 8, and 24 h after oral administration. Whole blood was centrifuged at 6800 g for 6 min at 4° C. and the top plasma was stored in a −80° C. freezer for later analysis.
The DMSO stock solution of the test compound was diluted into a series of working solutions with a methanol or an acetonitrile solution, and added to a blank plasma matrix, and standard curves were generated and quality control samples were prepared. An appropriate volume of the plasma sample was taken and a suitable multiple of methanol or acetonitrile containing an internal standard was added for protein precipitation based on the response. After centrifugation of all samples at 18000 g for 10 min at 4° C., an appropriate amount of supernatant was taken for LC-MS/MS injection analysis.
Drug concentration-time curves in plasma were plotted according to test concentrations, and pharmacokinetic parameters were calculated using noncompartmental analysis by WinNonlin software, including: half-life (T½), area under the concentration-time curve from time zero to time t (AUCO-t), clearance (CL), volume of distribution at steady state (Vss) and bioavailability (F), with some of the test results shown in Table 4.

HT-29 cells = experiment: HT-29 cell proliferation (Cell Titer-Glo, 6 days); assay type: cell-based
Procedure: The inhibitory effect on the KIF18A target by the compounds of the present disclosure was evaluated by testing the inhibitory effect on proliferation of HT-29 cells by the compounds of the present disclosure.
HT-29 (ATCC, HTB-38) cells were cultured in McCoy's 5a complete medium (Gibco, 12330-031) containing 10% fetal bovine serum (Gibco, 10099-141C), 100 U penicillin and […] streptomycin (Gibco, 15140-122). The Promega kit Cell Titer-Glo (Promega: G7572) was used in this method for test. • 1. HT-29 cells were cultured in T75 cell flasks (Corning, 430641) and the medium was placed in a 37° C., 5% CO2 incubator. Cells were passaged when reaching a cell density of 70%-80%, approximately twice per week. • 2. To perform the experiment, the test compounds were dissolved in DMSO to prepare a 10 mM stock solution, and the test compounds were added to the 384-well cell test plate (Corning, 3765) at the predetermined concentration using ECHO. • 3. The cell culture flask was taken out, the medium was removed, and the cells were rinsed with PBS. Then 2 mL of trypsin (with 0.25% EDTA) was added, and the flask was placed in the incubator for digestion for 4 minutes. • 4. Digestion was stopped by adding 4 mL of complete medium and the cell suspension was transferred to a centrifuge tube and centrifuged at 1000 rpm for 4 minutes. • 5. The cells were resuspended in 6 mL of complete medium, followed by cell counting. The cell density was adjusted to 4,170 cells/mL, and the cells were added to a 384-well plate at 60 μL/well. • 6. The 384-well plate was centrifuged at 500 rpm for 1 minute, and then placed in a 37° C., 5% CO2 incubator for 6 days of cultivation. • 7. Six days later, the cell culture plate was equilibrated for 10 minutes at room temperature, 25 μL of Cell Titer-Glo was added to each well, and the mixture was shaken and mixed well and let stand for 5 minutes. The luminescence values for samples in various wells were read using a microplate reader in Luminescence mode.
(§1) The percentage of inhibition of cell proliferation by the test compound at each concentration was calculated by comparing with the values of the control group (0.3% DMSO). The IC50 values of the compounds were obtained by concentration-inhibition rate nonlinear regression analysis of the test compounds using GraphPad Prism 9.

A2780 cells = experiment: A2780 cell anti-proliferation assay; assay type: cell-based; conditions: 6 days, Cell Titer-Glo
Procedure: A2780 (ECACC) cells were cultured in RPMI-1640 complete medium (Gibco, A1049101) containing 10% fetal bovine serum (Gibco, 10099-141C), 100 U penicillin and 100 μg/mL streptomycin (Gibco, 15140-122). The Promega kit Cell Titer-Glo (Promega: G7572) was used in this method for test.
A2780 cells were cultured in T75 cell flasks (Corning, 430641) and the cells were placed in a 37° C., 5% CO2 incubator. Cells were passaged when reaching a cell density of 70%-80%, once every five days. To perform the experiment, the test compounds were dissolved in DMSO to prepare a 10 mM stock solution, and the test compounds were added to the 384-well cell test plate (Corning, 3765) at the predetermined concentration (19.5 nM-[…]) using ECHO. A2780 cells were digested and 4000 cells (60 μL medium) were seeded per well in the test plate. The 384-well plate was then centrifuged at 500 rpm for 1 minute, and then placed in a 37° C., 5% CO2 incubator for 6 days of cultivation. Six days later, the cell culture plate was equilibrated for 10 minutes at room temperature, 25 μL of Cell Titer-Glo was added to each well, and the mixture was shaken and mixed well and let stand for 5 minutes. The luminescence values for samples in various wells were read using a microplate reader in Luminescence mode.
as §1, with “inhibition of A2780 cell proliferation” for “inhibition of cell proliferation”, “control group (0.2% DMSO). The” for “control group (0.3% DMSO). The”

[1] = both sexes, mouse, read-out: AUC
[2] = both sexes, mouse, read-out: Cmax

| IC50 (HT-29 cells) | IC50 (A2780 cells) | SMILES | AUC (PK study in ICR mice; [1]) | Cmax (PK study in ICR mice; [2]) | IC50 (HT-29 cells; Homo sapiens, HT-29, 144 h) | IC50 (A2780 cells; Homo sapiens, A2780, 144 h) | AUC (PK study in ICR mice) | Cmax (PK study in ICR mice) |
| --- | --- | --- | --- | --- | --- | --- | --- | --- |
| – | – | O=C(Nc1cccc2c1cc1n2CCOC1)c1ccc(NS(=O)(=O)CCO)cc1N1CCC2(CC1)CC2 [Example 235, N-(3,4-dihydro-1H-[1, 4]oxazino[4,3-a]indol-9-yl)-4-(2-hydroxyethylsulfonamido)-2-(6-azaspiro[2.5]octan-6-yl)benzamide] | 5980 ng·h/mL | 2990 ng/mL | ≤ 200 nM | > 10 µM | – | – |
| – | – | O=C(Nc1ccc(F)c2c1cc1n2CCOC1)c1ccc(NS(=O)(=O)CCO)cc1N1CCC(=C(F)F)CC1 [Example 321, 2-(4-(difluoromethylene)piperidin-1-yl)-N-(6-fluoro-3,4-dihydro-1H-[1,4]oxazino[4,3-a]indol-9-yl)-4-((2-hydroxyethyl)sulfonamido)benzamide] | 16000 ng·h/mL | 4140 ng/mL | 200 to 1000 nM | > 10 µM | – | – |
| – | – | CC1(C)Cn2c(cc3c(NC(=O)c4ccc(NS(=O)(=O)CCO)cc4N4CCC5(CC4)CC5)cccc32)CO1 [Example 371, N-(3,3-dimethyl-3,4-dihydro-1H-[1,4]oxazino[4,3-a]indol-9-yl)-4-(2-hydroxyethylsulfonamido)-2-(6-azaspiro[2.5]octan-6-yl)benzamide] | 51200 ng·h/mL | 3750 ng/mL | ≤ 200 nM | > 10 µM | – | – |
| – | – | N#Cc1ccc(NC(=O)c2ccc(NS(=O)(=O)CCO)cc2N2CCC(=C(F)F)CC2)c2cc3n(c12)CCOC3 [Example 364, N-(6-cyano-3,4-dihydro-1H-[1,4]oxazino[4,3-a]indol-9-yl)-2-(4-(difluoromethylene)piperidin-1-yl)-4-((2-hydroxyethyl)sulfonamido)benzamide] | – | – | 200 to 1000 nM | 9.4 µM | – | – |
| ≤ 200 nM | 7.7 µM | N#Cc1ccc(NC(=O)c2ccc(NS(=O)(=O)CCO)cc2N2CCC(=C(F)F)CC2)c2cc3n(c12)CCC(F)(F)C3 [Example 378] | – | – | – | – | 48150 ng·h/mL | 5253 ng/mL |
| – | – | COc1ccc(NC(=O)c2ccc(NS(=O)(=O)CCO)cc2N2CCC3(CC2)CC3)c2cc3n(c12)CC(C)(C)OC3 [Example 455, 4-((2-hydroxyethyl)sulfonamido)-N-(6-methoxy-3,3-dimethyl-3,4-dihydro-1H-[1,4]oxazinyl[4,3-a]indol-9-yl)-2-(6-azaspiro[2.5]oct-6-yl)benzamide] | 71000 ng·h/mL | 5590 ng/mL | ≤ 200 nM | > 10 µM | – | – |
| – | – | N#Cc1ccc(NC(=O)c2ccc(NS(=O)(=O)CCO)cc2N2CCC3(CC2)CC3)c2cc3n(c12)CCOC3 [Example 310, N-(6-cyano-3,4-dihydro-1H-[1,4]oxazino[4,3-a]indol-9-yl)-4-((2-hydroxyethyl)sulfonamido)-2-(6-azaspiro[2.5]oct-6-yl)benzamide] | 12600 ng·h/mL | 3030 ng/mL | ≤ 200 nM | > 10 µM | – | – |
| – | – | CC1(C)Cn2c(cc3c(NC(=O)c4ccc(NS(=O)(=O)CCO)cc4N4CCC(=C(F)F)CC4)cccc32)CO1 [Example 370, 2-(4-(difluoromethylene)piperidin-1-yl)-N-(3,3-dimethyl-3,4-dihydro-1H-[1,4]oxazino[4,3-a]indol-9-yl)-4-((2-hydroxyethyl)sulfonamido)benzamide] | 52400 ng·h/mL | 3580 ng/mL | 200 to 1000 nM | > 10 µM | – | – |
| ≤ 200 nM | > 10 µM | COC1c2cc3c(NC(=O)c4ccc(NS(=O)(=O)CCO)cc4N4CCC5(CC4)CC5)cccc3n2CCC1(F)F (single isomer, unassigned) [Example 340-P2] | – | – | – | – | – | – |
| – | – | CC1(C)Cn2c(cc3c(NC(=O)c4ccc(NS(=O)(=O)CCO)cc4N4CCC5(CC4)CC5)ccc(OC(F)F)c32)CO1 [Example 523] | – | – | – | – | 99384 ng·h/mL | 7088 ng/mL |
| – | – | CC1(C)OCCn2c1cc1c(NC(=O)c3ccc(NS(=O)(=O)CCO)cc3N3CCC(=C(F)F)CC3)cccc12 [Compound 395, 2-(4-(difluoromethylene)piperidin-1-yl)-N-(1,1-dimethyl-3,4-dihydro-1H-[1,4]oxazino[4,3-a]indol-9-yl)-4-((2-hydroxyethyl)sulfonamido)benzamide] | – | – | 200 to 1000 nM | > 10 µM | – | – |
| ≤ 200 nM | 8.3 µM | CNc1cc(NS(=O)(=O)CCO)cc(N2CCC3(CC2)CC3)c1C(=O)Nc1cc(C)nc(N2CCC(F)(F)CC2)n1 [Example 4, N-(2-(4,4-difluoropiperidin-1-yl)-6-methylpyrimidin-4-yl)-4-(2-hydroxyethylsulfonamide)-2-methylamino-6-(6-azaspiro[2.5]octan-6-yl)benzamide] | – | – | – | – | – | – |
| ≤ 200 nM | > 10 µM | CC1(O)CCCn2c1cc1c(NC(=O)c3ccc(NS(=O)(=O)CCO)cc3N3CCC4(CC3)CC4)cccc12 (centres unmarked) [Example 372] | – | – | – | – | – | – |

| SMILES | IC50 (HT-29 cells) | IC50 (A2780 cells) | AUC (PK study in ICR mice; [1]) | Cmax (PK study in ICR mice; [2]) | IC50 (HT-29 cells; Homo sapiens, HT-29, 144 h) | IC50 (A2780 cells; Homo sapiens, A2780, 144 h) | AUC (PK study in ICR mice) | Cmax (PK study in ICR mice) |
| --- | --- | --- | --- | --- | --- | --- | --- | --- |
| Nc1cc(NS(=O)(=O)CCO)cc(N2CCC3(CC2)CC3)c1C(=O)Nc1cccc(N2CCC(F)(F)CC2)c1 [Example 1, 2-amino-N-(3-(4,4-difluoropiperidin-1-yl)phenyl)-4-((2-hydroxyethyl)sulfonamide)-6-(6-azaspiro[2.5]octan-6-yl)benzamide] | ≤ 200 nM | – | – | – | – | – | – | – |
| O=C(Nc1cccc2c1cc1n2CCOC1)c1ccc(NS(=O)(=O)CCO)cc1N1CCC(=C(F)F)CC1 [Example 319, 2-(4-difluoromethylene)piperidin-1-yl-N-(3,4-dihydro-1H-[1,4]oxazino[4,3-a]indol-9-yl)-4-((2-hydroxyethyl)sulfonamide) benzamide] | 200 to 1000 nM | > 10 µM | – | – | – | – | 16534 ng·h/mL | 3717 ng/mL |
| CC1Cn2c(cc3c(NC(=O)c4ccc(NS(=O)(=O)CCO)cc4N4CCC5(CC4)CC5)cccc32)C(C)O1 (single isomer, unassigned) [Compound 312-P2A, N-(1,3-dimethyl-3,4-dihydro-1H-[1,4]oxazino[4,3-a]indol-9-yl)-4-((2-hydroxyethyl)sulfonamido)-2-(6-azaspiro[2.5]oct-6-yl)benzamide] | – | 6.5 µM | – | – | ≤ 200 nM | – | – | – |
| O=C(Nc1cccc2c1cc1n2CC2CCC1O2)c1ccc(NS(=O)(=O)CCO)cc1N1CCC(=C(F)F)CC1 (centres unmarked) [Compound 398, 2-(4-(difluoromethylene)piperidin-1-yl)-4-((2-hydroxyethyl)sulfonamido)-N-(7,8,9,10-tetrahydro-6H-7,10-epoxyazeto[1,2-a]indol-1-yl)benzamide] | – | > 10 µM | – | – | – | – | 6992 ng·h/mL | 1410 ng/mL |
